According to publication PMC3597687 (Nucleic Acids Research, 2013):

molecular target: T1, LysMSs (S. solfataricus LysM) (Saccharolobus solfataricus, UniProt Q980W9); assay: EMSA, effect on LysM binding to […]-labelled gltB operator DNA; conditions: gltB control region 167-bp fragment; effector 5 mM; 250 nM LysM
T1 sequence (Q980W9 1-142): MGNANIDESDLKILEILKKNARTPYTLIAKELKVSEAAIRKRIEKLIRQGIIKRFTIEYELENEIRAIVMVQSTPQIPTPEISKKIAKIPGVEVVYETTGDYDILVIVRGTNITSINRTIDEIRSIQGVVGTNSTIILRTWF

SMILES	EMSA, effect on LysM binding to 32P-labelled gltB operator DNA
CSCC[C@H](N)C(=O)O [L-methionine]	arginine, glutamine, isoleucine, leucine, methionine and valine also specifically reduce LysM binding
CC[C@H](C)[C@H](N)C(=O)O [L-isoleucine]	arginine, glutamine, isoleucine, leucine, methionine and valine also specifically reduce LysM binding
NC(=O)CC[C@H](N)C(=O)O [L-glutamine]	arginine, glutamine, isoleucine, leucine, methionine and valine also specifically reduce LysM binding
CC(C)C[C@H](N)C(=O)O [L-leucine]	arginine, glutamine, isoleucine, leucine, methionine and valine also specifically reduce LysM binding
CC(C)[C@H](N)C(=O)O [L-valine]	arginine, glutamine, isoleucine, leucine, methionine and valine also specifically reduce LysM binding

same assay, conditions: gltB control region 167-bp fragment; weak effector, mM range

SMILES	EMSA, effect on LysM binding to 32P-labelled gltB operator DNA
N=C(N)NOCC[C@H](N)C(=O)O [L-canavanine]	The effect of L-canavanine and L-citrulline was less pronounced
NC(=O)NCCC[C@H](N)C(=O)O [L-citrulline]	The effect of L-canavanine and L-citrulline was less pronounced
